Measurements reported in patent US20130012466A1 (priority 2006, published 2013).
Entries after “also recorded” stand apart in the source; their conditions may differ. Read-outs that look alike come from different tables or passages of the source.

How the values were obtained:
[1] = tested on: mouse mammary normal epithelial control cell line; assay: Cytotoxicity assay, normal control cell line
[2] = tested on: Hep3B; assay: Cytotoxicity assay (cell titer-glo and calcein AM), Hep3B; details: Hep 3B, % error in parentheses
[3] = tested on: Du145; assay: Cytotoxicity assay (cell titer-glo and calcein AM), Du145; details: Du145, % error in parentheses
[4] = tested on: NCI-H460; assay: Cytotoxicity assay (cell titer-glo and calcein AM), NCI-H460; details: NCI-H460, % error in parentheses
[5] = tested on: HCT-116
[6] = tested on: A549; assay: Cytotoxicity assay (cell titer-glo and calcein AM), A549; details: A549, % error in parentheses
[7] = tested on: SK-OV-3; assay: Cytotoxicity assay (cell titer-glo and calcein AM), SK-OV-3; details: SK-OV-3, % error in parentheses
[8] = tested on: MCF7; assay: Cytotoxicity assay (cell titer-glo and calcein AM), MCF7
[9] = tested on: ADR-RES; assay: Cytotoxicity assay (cell titer-glo and calcein AM), ADR-RES; details: NCI/ADR RES, % error in parentheses
[10] = tested on: SF-268; assay: Cytotoxicity assay (cell titer-glo and calcein AM), SF-268; details: SF-268, % error in parentheses
[11] = Precipitation in assay media; assay type: physicochemical; details: cell culture media / assay
[12] = tested on: tubulin; assay: In vitro tubulin polymerization assay (fluorescence-based); assay type: biochemical; set-up: key to tubulin polymeriz.: ‘D’ designates destabilizer; ‘S’ designates stabilizer
Method: In vitro tubulin polymerization assays were performed using a fluorescence-based assay (Cytoskeleton, Inc., Denver, Colo.). […] Aliquots (5 μL) of each compound or control were added to a 96-well black half area plate (Corning Costar, Inc.) pre-warmed to 37° C. Cold tubulin reaction mix (50 μL 1× Buffer—80 mM piperazine-N,N′-bis[2-ethanesulfonic acid]sequisodium salt; 2.0 mM magnesium chloride; 0.5 mM ethylene glycol-bis[β-amino-ethyl ether) N,N,N′,N′-tetra-acetic acid, pH 6.9, 10 μM fluorescent reporter; 20% tubulin glycerol buffer—80 mM piperazine-N,N′-bis[2-ethanesulfonic acid] sequisodium salt; 2.0 mM magnesium chloride; 0.5 mM ethylene glycol-bis(β-amino-ethyl ether) N,N,N′,N′-tetra-acetic acid, 60% v/v glycerol, pH 6.9, 1 mM GTP; and 2 mg mL^−1 tubulin stock) was added to each of the compounds. […] Polymerization curves were generated in Excel after background correction and the effects of test compounds were compared to controls.
Library members that accelerated the rate of tubulin polymerization were deemed microtubule stabilizers, whereas compounds that decelerated the rate of tubulin polymerization were deemed microtubule de-stabilizers.

[13] = tested on: nine human cancer cell lines and one normal mouse control cell line; assay: Cytotoxicity screen across the whole cell line panel; assay type: cell-based; details: cell lines other than ADR-Res, SF-268 and HCT-116; read-out: potencies (IC50) in all other cell lines examined
[14] = tested on: A549 cells; assay: Drug combination study with paclitaxel (Chou-Talalay combination index);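 further: combination indexes averaged only over points where fraction affected exceeded 0.2, with each synergy experiment repeated at least three times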
Method: (§1) Ten thousand A549 cells per well were plated in triplicate in 96 well black tissue culture treated plates. Cells were incubated for one hour at 37° C. to allow cells to attach.
(§2) All synergy experiment results were replicated at least three times and the overall effects analyzed by averaging all combination indexes generated if the fraction affected was greater than 0.2.

[15] = tested on: A549 cells; assay: Drug combination study with colchicine (Chou-Talalay combination index)
Method: as §1, §2

[16] = read-out: Cytotoxicity IC50, NmuMG, CTG, CTG (cell titer-glo) readout, % error in parentheses
[17] = read-out: Cytotoxicity IC50, NmuMG, calcein, calcein AM readout, % error in parentheses
[18] = read-out: Cytotoxicity IC50, Hep 3B, CTG, CTG (cell titer-glo) readout
[19] = read-out: Cytotoxicity IC50, Hep 3B, calcein, calcein AM readout
[20] = read-out: Cytotoxicity IC50, Du145, CTG, CTG (cell titer-glo) readout
[21] = read-out: Cytotoxicity IC50, Du145, calcein, calcein AM readout
[22] = read-out: Cytotoxicity IC50, NCI-H460, CTG, CTG (cell titer-glo) readout
[23] = read-out: Cytotoxicity IC50, NCI-H460, calcein, calcein AM readout
[24] = read-out: Cytotoxicity IC50, A549, CTG, CTG (cell titer-glo) readout
[25] = read-out: Cytotoxicity IC50, A549, calcein, calcein AM readout
[26] = read-out: Cytotoxicity IC50, SK-OV-3, CTG, CTG (cell titer-glo) readout
[27] = read-out: Cytotoxicity IC50, SK-OV-3, calcein, calcein AM readout
[28] = read-out: Cytotoxicity IC50, MCF7, CTG, CTG (cell titer-glo) readout, % error in parentheses
[29] = read-out: Cytotoxicity IC50, MCF7, calcein, calcein AM readout, % error in parentheses
[30] = read-out: Cytotoxicity IC50, NCI/ADR RES, CTG, CTG (cell titer-glo) readout
[31] = read-out: Cytotoxicity IC50, NCI/ADR RES, calcein, calcein AM readout
[32] = read-out: Cytotoxicity IC50, SF-268, CTG, CTG (cell titer-glo) readout
[33] = read-out: Cytotoxicity IC50, SF-268, calcein, calcein AM readout
[34] = combination index, paclitaxel held at IC10, A549 cells
[35] = drug combination, A549 cells, Chou-Talalay
[36] = combination index, colchicine held at IC10, A549 cells

Compound	IC50 [1, 16] [nM]	IC50 [1, 17] [nM]	IC50 [2, 18] [nM]	IC50 [2, 19] [nM]	IC50 [3, 20] [nM]	IC50 [3, 21] [nM]	IC50 [4, 22] [nM]	IC50 [4, 23] [nM]	IC50 [5] [nM]	IC50 [6, 24] [nM]	IC50 [6, 25] [nM]	IC50 [7, 26] [nM]	IC50 [7, 27] [nM]	IC50 [8, 28] [nM]	IC50 [8, 29] [nM]	IC50 [9, 30] [nM]	IC50 [9, 31] [nM]	IC50 [10, 32] [nM]	IC50 [10, 33] [nM]	also measured
COc1cc2c(c(OC)c1OC)-c1ccc(OC)c(=O)cc1[C@@H](NC(=O)CN(OC)[C@@H]1O[C@H](CO)[C@@H](O[C@H]3O[C@H](CO)[C@@H](O[C@H]4O[C@H](CO)[C@@H](O)[C@H](O)[C@H]4O)[C@H](O)[C@H]3O)[C@H](O)[C@H]1O)CC2 [Col13, maltotrioside]	> 10000	> 10000	> 10000	> 10000	> 10000	> 10000	> 10000	2580	> 10000	> 10000	> 10000	> 10000	> 10000	9860	> 10000	> 10000	> 10000	> 10000	> 10000	–
COc1cc2c(c(OC)c1OC)-c1ccc(OC)c(=O)cc1C(NC(=O)CN(OC)C1OC(COCc3ccccc3)C(OCc3ccccc3)C1OCc1ccccc1)CC2 (stereo not shown) [Col53]	120	392	47	69	41	32	41	71	–	48	62	42	36	49	39	46	37	37	18	precipitation [11]: precipitation in cell culture media; also recorded: precipitated
COc1cc2c(c(OC)c1OC)-c1ccc(OC)c(=O)cc1[C@@H](NC(C)=O)CC2 [colchin]	–	–	–	–	169	–	–	–	153	–	–	–	–	–	–	18	–	67	–	–
D-glucorono-6,3-lactonide [Col45]	1460	> 10000	793	962	1140	939	775	1020	–	1100	1060	836	887	760	679	1140	403	398	462	tubulin polymeriz. [12]: D; effect on tubulin polymerization / microtubules ([12]; tested in duplicate on at least two days): destabilizing; also recorded: destabilized microtubules; IC50 [13]: > 900 nM; synergy (paclitaxel) ([14]; combination index class, combination with paclitaxel, Chou-Talalay method): ++++ (strong synergism, Cl 0.1-0.3); plus paclitaxel, mean CI [14, 34]: 0.12; plus paclitaxel, median CI [14, 34]: 0.07; interaction with paclitaxel/taxol [14, 35]: strong synergism; plus colchicine, mean CI [15, 36]: 107.40; plus colchicine, median CI [15, 36]: 102.90; interaction with colchicine [15, 35]: strong antagonism
